In data set [1] the test system is hepatic gluconeogenesis (GNG). Further details: endogenous glucose output: unit not given here. Particulars: cited from earlier work.
The subject of data set [2] is peripheral insulin exposure (PIE). The data set is described as follows: Glucose supply and insulin demand model: effect on peripheral insulin exposure. The format is in vivo, human. Also noted: PIE (24 h insulin exposure): unit not given here. The note with it: for PIE: adjustment factor = increase in peripheral insulin exposure at the therapeutic dose of Table 1, T2D. The procedure:
(§1) Therapeutic targets of the glucose supply (CE, 1+2; HGU, 3; GNG, 4; IR, 5) and insulin demand (PGU, 6; PIE, 7) model are presented in FIG. 1. To identify quantitative differences between antidiabetic agents on CE, HGU, GNG, IR, PGU, and PIE, multidatabase searches (Cochrane Central Register of Controlled Trials and Cochrane Register of Systematic Reviews, Embase, OVID Healthstar, OVID Journals, and PubMed) were conducted cross-referencing title and keywords for all selected antidiabetic therapies and their respective targets.
(§2) Alpha-glucosidase, biguanide, and thiazolidinedione (TZD) studies with long-term, pre-post design at maximal therapeutic doses were identified to simulate chronic administration. To maintain consistency with cardiovascular trials and accommodate known influences of hyperglycemia and hyperinsulinemia on the respective targets,^13-16 studies including patients with HbA1c in the range of 6-8% and body mass index (BMI)≧30 kg/m^2 were preferentially selected. In the event multiple studies were available to identify the effect of an agent on a therapeutic target, the mean percent change was used. Conversely, if there was evidence that an agent would elicit a response on a given target but no mathematical representation of the difference was provided, conservative estimates consistent with the scale of other agents and the degree of glucose regulation were instituted to best represent the expected effect. Individual agents were then characterized for the 24 h percent change from baseline for CE, HGU, GNG, IR, PGU, and PIE. Carbohydrate exposure was determined as the combined effect of caloric intake and intestinal carbohydrate absorption. Hepatic glucose uptake was defined as the reported value obtained immediately following oral glucose loading. Because GNG is known to be enhanced in the fasting state and persistent throughout the prandial phase,^17,18 effect was determined during the fasting state and considered equivalent throughout the prandial phase. For studies evaluating fasting glucose and insulin concentrations, an index of IR was determined by homeostasis model assessment of insulin resistance (HOM-AIR) using the following formula: Insulin (mU/liter)×Glucose (mmol)/22.5.^19 To account for known differences in secretory and uptake dynamics during the fasting and prandial phases, studies identifying the impact of therapies during the fasting state (or simulated hyperinsulinemic euglycemic clamp) and prandial phase (or oral glucose load insulin clamp) were specifically identified for changes in PGU (glucose infusion rate) and PIE (insulin concentrations) according to Equation (1): […]
(§3) For sulfonylurea and insulin-based therapies, insulin concentration time profiles were obtained and superimposed on the baseline 24 h insulin concentration time profile of T2D patients (FIG. 2) to calculate the increase in PIE (trapezoidal rule).^20 Calculated increases in incremental and cumulative insulin exposure were correlated to known insulin dose-response effects on HGU, GNG, and PGU (FIG. 3),^18,21 according to the equation y=mx+b. Twenty-four-hour increases in HGU, PGU, and PIE and decreases in GNG were compared to baseline values and percent change calculated.
(§4) With alpha-glucosidase, biguanide, TZD, secretagogue, and insulin therapies characterized for their respective impacts on CE, HGU, GNG, IR, PIE, and PGU, identification of their effect on the glucose supply (decrease in CE, increase in HGU, decrease in GNG, decrease in IR) and insulin demand (increase in PIE, increase in PGU) dynamic was assessed according to Equation (2), which provides the SD ratio according to the invention: […]
Twenty-four-hour steady state insulin concentration time curves were superimposed on the baseline secretion profile of the standard T2D patient.

Data set [3] concerns insulin resistance (IR). The data set is described as follows: Glucose supply and insulin demand model: effect on insulin resistance. The note with it: for IR reduction: adjustment factor = decrease in insulin resistance at the therapeutic dose of Table 1, T2D. The format is in vivo, human. The procedure:
as §1, §2, §3, §4

For data set [4], the system named is hepatic glucose uptake (HGU). The data set is described as follows: Glucose supply and insulin demand model: effect on hepatic glucose uptake. The format is in vivo, human. Particulars: for HGU uptake: adjustment factor = increase in hepatic glucose uptake at the therapeutic dose of Table 1, T2D. The protocol:
as §1, §2, §3, §4

Data set [5] has as its system hepatic gluconeogenesis (GNG). The data set is described as follows: Glucose supply and insulin demand model: effect on hepatic gluconeogenesis. Particulars: for GNG inhibition: adjustment factor = decrease in hepatic gluconeogenesis at the therapeutic dose of Table 1, T2D. Type of data set: in vivo, human. The procedure:
as §1, §2, §3, §4

Data set [6] has as its system peripheral glucose uptake (PGU). As to the kind of experiment: Glucose supply and insulin demand model: effect on peripheral glucose uptake. The note with it: for PGU: adjustment factor = increase in peripheral glucose uptake at the therapeutic dose of Table 1, T2D. Type of data set: in vivo, human. The protocol:
as §1, §2, §3, §4

Data set [7] has as its system metabolic syndrome. The data set is described as follows: FS index / neural net model of cardiovascular risk in metabolic syndrome patient populations. Type of data set: in vivo, human. The procedure:
The FS index of MS comprises the following parameters: Fasting Blood Glucose, Fasting Insulin, HBA1c, BMI, AST, Triglycerides, Glucose Supply-Demand (S/D) index, and in certain cases, Proinsulin. Each parameter was mathematically arranged to increase as MS worsened, and weighted approximately equally in the prediction of MS progression and risk for CV events. […] FS index values were calculated from serial laboratory and clinical data over timeframes ranging between 2 and 10 years.
Neural Net Models and Data Display Methods. […] Unless otherwise stated, standard deviations (z-score) vs. time are presented in the individual and mean population graphics.
For purposes of analysis, clinical and laboratory parameters were converted into modified z-scores as follows: • A mean normal value (described as “mean” in the following) was selected based on review of literature and various published laboratory compendia. The Standard Deviation (SD) of each parameter was set to one half of the normal range. The modified z-score is calculated as follows: z=(Patient value−“mean”)/SD • On the graphs, the z-score is reported as the number of SD.
The FS index considered the following: Fasting Blood Glucose, Fasting Insulin, HBA1c, BMI, AST, Triglycerides, Glucose Supply-Demand (S/D) index, and in some cases Proinsulin. […] Each of these parameters was mathematically arranged to increase as Metabolic Syndrome worsened, and weighted approximately equally in the prediction of Metabolic Syndrome progression and risk for CV events.
The FS index was then applied to well-studied patient populations using a neural net model.
[formula] Where FBG is Fasting Blood Glucose in mg/dl and normal value is 100 mg/dl TG is Triglycerides in mg/dl normal value is <150 HBA1c is hemoglobin A1c in %, normal value is <6% BMI is body mass index as kg/m2 where a normal value is 20 and obese begins above 25 AST is Aspartate Transferase also called SGOT in IU/liter and a normal value is 5-50 FB insulin is fasting Blood insulin concentration in nmol/liter, a normal value is 4.0

For data set [8] the following is noted: initiation of insulin in T2D patients; duration and intensity dependent; cited from earlier work.
For data set [9], the system named is carbohydrate exposure (CE). As to the kind of experiment: Glucose supply and insulin demand model: effect on carbohydrate exposure. The format is in vivo, human. Also noted: scale not given here. The procedure:
as §1, §2, §3, §4

Where [10] appears, read: Insulin Glargine 1.0 U/Kg daily.
[11] abbreviates: Metformin 2000 mg, Glyburide 10 mg, Pioglitazone 45 mg, Insulin Glargine 0.5 U/kg daily, pH encapsulated glucose 3.0 grams/day.
[12] abbreviates: insulin glargine 0.5 U/kg, from insulin dose-response relationship.

`OCCN1C[C@H](O)[C@@H](O)[C@H](O)[C@H]1CO` [Miglitol]: in [1] (Schnack, miglitol 300 mg/day, eight weeks, euglycemic clamp, poorly controlled T2D, placebo 0.35±0.17, not significant), the hepatic glucose output is recorded as 0.37±0.15 mg/kg^−1/min^−1. The “change in hepatic glucose production” value in [1] (Sels, miglitol 200 mg at bedtime for 1 week, T2D) is listed as “not associated with a change in hepatic glucose production”. The same molecule showed a PIE in [2] of 0.05. In data set [3], this molecule registered an IR reduction of 0.15. Further, the HGU uptake in [4] was 0.15. For the same molecule, in data set [5], the GNG inhibition amounted to 0.05. In addition, the PGU in data set [6] is 0.25.

With `N[C@@H](CC(=O)N1CCn2c(nnc2C(F)(F)F)C1)Cc1cc(F)c(F)cc1F` [Sitagliptin], the “FS index response to treatment” value in [7] (normal 20-50, 61 T2D on metformin, 100 RYGB, 18 Brake, 33 exenatide, 12 sitagliptin patients) is on record as “beneficial response to the diabetes component of metabolic syndrome”. Besides, the “other parameters of metabolic syndrome (BMI/weight, HBSD, lipids, NAFLD, blood pressure, insulin)” value in [7] (same patient populations as FS index) was “weight slowly increases or stays the same, lipid abnormalities do not resolve and NAFLD abnormalities do not resolve”.

With insulin, the “plasma C5:^2H2O ratio” value in data set [1] (Gastaldelli, euglycemic hyperinsulinemic clamp, plasma insulin 113±6 μU/ml, T2D, basal 0.60±0.02) was 0.25±0.02. Besides, in [1] (Gastaldelli, euglycemic hyperinsulinemic clamp, plasma insulin 113±6 μU/ml, T2D, basal 15.2±0.4), the endogenous glucose output was 7.1±0.9. For the same molecule, in [8], the weight gain is reported as 5-10%.

Consider Insulin Glargine, for which the results for the “Score PIE” value in data set [2] (setting [10]) and in [2] (setting [11]) were 0.60 and 0.30, respectively. In addition, the PIE in [2] amounted to 0.30. Besides, in data set [2] (insulin glargine 0.5 U/kg superimposed on standard T2D profile, baseline 5765), the “PIE (24 h insulin exposure)” value is recorded as 7495. Also, in data set [2] (insulin glargine 0.5 U/kg, 24 h profile superimposed on standard T2D profile, trapezoidal rule), the “increase in PIE versus baseline” value is listed as 30%. The “Score IR” value in [3] (setting [10]) and in data set [3] (setting [11]) was 0.00 each time. The IR reduction in data set [3] was found to be 0.00. Moreover, the “Score HGU” value came out at 0.48 in data set [4] (setting [10]) and 0.24 in data set [4] (setting [11]). In data set [4], this molecule displayed an HGU uptake of 0.24. The “increase in HGU” value in data set [4] (setting [12]) is given as 24%. Also, the “Score HGI” value was determined as 0.20 in [5] (setting [10]) and 0.10 in data set [5] (setting [11]). This molecule also returned a GNG inhibition in [5] of 0.10. The “decrease in GNG” value in data set [5] (setting [12]) turned out to be 10%. Moreover, the “Score CE” value in data set [9] (setting [10]) and in data set [9] (setting [11]) was 0.00 in each case. For the same molecule, in [9] (adjustment factor = decrease in carbohydrate exposure at the therapeutic dose of Table 1, T2D), the CE inhibition is reported as 0.00. Also, the “Score PGU” value amounted to 0.84 in data set [6] (setting [10]) and 0.42 in data set [6] (setting [11]). Moreover, in [6], the PGU is on record as 0.42. The “increase in PGU” value in [6] (setting [12]) came to 42%.

`CCc1ccc(CCOc2ccc(CC3SC(=O)NC3=O)cc2)nc1` (stereo not shown) [Pioglitazone]: the “Score PIE” value in data set [2] (setting [11]) was −0.10. In [2], this molecule showed a PIE of −0.10. In addition, the “Score IR” value in data set [3] (setting [11]) is on record as 0.35. The molecule also had an IR reduction in data set [3] of 0.35. In data set [4] (setting [11]), the “Score HGU” value was 0.40. Moreover, in [4], the HGU uptake worked out at 0.40. Further, in [5] (setting [11]), the “Score HGI” value amounted to 0.21. For the same molecule, in data set [5], the GNG inhibition amounted to 0.21. Besides, the “Score CE” value in data set [9] (setting [11]) is given as 0.00. For the same molecule, the “Score PGU” value in data set [6] (setting [11]) stood at 0.59. In [6], this molecule came in with a PGU of 0.59.

The record behind these values is US9443060B2, “Method and system to provide personalized pharmaceutical compositions and dosages” (Volant Holdings GMBH, priority 2009, dated 2016).
